# Source: patent publication US20090203693A1, “THERAPEUTIC AGENT FOR LIVER FIBROSIS” (Eisai R & D Management Co., Ltd., priority 2006, published 2009)
# Target: T1, His6-DDR2 (cytoplasmic domain of human DDR2) (Homo sapiens, UniProt Q16832)
# T1 construct: cytoplasmic domain of DDR2 having 6 histidines fused to the N-terminus thereof; made in house; host or cells: Sf9 insect cells (baculovirus, pFastBac-HT)
# T1 sequence (Q16832 422-855 limits assumed): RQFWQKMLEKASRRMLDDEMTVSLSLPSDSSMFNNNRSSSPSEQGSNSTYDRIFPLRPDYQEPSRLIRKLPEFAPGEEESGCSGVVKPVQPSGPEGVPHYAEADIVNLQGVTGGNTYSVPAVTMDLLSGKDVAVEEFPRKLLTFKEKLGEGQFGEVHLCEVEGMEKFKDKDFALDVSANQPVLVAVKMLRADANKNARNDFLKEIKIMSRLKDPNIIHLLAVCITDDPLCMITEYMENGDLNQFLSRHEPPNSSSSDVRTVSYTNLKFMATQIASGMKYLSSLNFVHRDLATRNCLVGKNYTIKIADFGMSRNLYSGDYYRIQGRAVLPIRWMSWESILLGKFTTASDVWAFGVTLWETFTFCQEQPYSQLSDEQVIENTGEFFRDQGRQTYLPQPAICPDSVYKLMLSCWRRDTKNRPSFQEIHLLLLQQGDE
# Experiment: Determination of DDR2 kinase inhibitory activity (His6-DDR2 tyrosine autophosphorylation, HTRF)
# Type: biochemical
# Conditions: cell free, ATP, room temperature 10 minutes, HTRF detection; read-out: IC50 (concentration of the test substance required for inhibiting His6-DDR2 kinase activity by 50%)
# Source text: A DNA fragment of cytoplasmic domain of human DDR2 (SEQ ID NO: 1) was isolated by PCR method (Expand High Fidelity (purchased from Roche)) according to a conventional technique using human brain cDNA library (purchased from Clontech) as a template and SEQ ID NO:3: 5′-[…]-3′ and SEQ ID NO:4: 5′-[…]-3′ (purchased from JBioS) as primers. This DNA fragment was inserted into a baculovirus transplacement vector (pFastBac™-HT (purchased from Invitrogen)) to obtain a recombinant construct. Insect cells (Spodoptera frugiperda 9 (Sf9 cells)) were transfected with this recombinant construct, thereby preparing a DDR2 recombinant baculovirus solution. For preparation of a recombinant baculovirus, we referred to a standard textbook (Bac-to-Bac Baculovirus Expression System (Invitrogen)).
# The above-described DDR2 recombinant Baculovirus solution (0.07 mL) was added to Sf9 cells (7×10^7 cells) suspended in 2.5% FBS-containing SF-900II medium (purchased from Invitrogen) and shake-cultured at 27° C. for 72 hours. Then, this DDR2 recombinant Baculovirus-infected cells were subjected to centrifugation at 1,600 rpm at 4° C. for 6 minutes and the supernatant was removed. The precipitated infected cells were suspended in 10 mL of ice-cold PBS and centrifuged at 1,600 rpm at 4° C. for 6 minutes to remove the supernatant. The precipitated infected cells were suspended in 5 mL of ice-cold lysis buffer (50 mM Tris-HCl (pH 8.5), 5 mM 2-mercaptoethanol, 100 mM KCl, 1 mM PMSA, 1% (v/v) NP40), and centrifuged at 10,000 rpm at 4° C. for 10 minutes to obtain the supernatant.
# This supernatant was added to a Ni-NTA agarose column (1.5 mL (purchased from Qiagen)) equilibrated with 5 mL of buffer A (20 mM Tris-HCl (pH 8.5), 5 mM 2-mercaptoethanol, 500 mM KCl, 20 mM imidazole, 10% (v/v) glycerol). This column was sequentially washed with 10 mL of buffer A, 2 mL of buffer B (20 mM Tris-HCl (pH8.5), 5 mM 2-mercaptoethanol, 1 M KCl, 10% (v/v) glycerol) and 2 mL of buffer A. Subsequently, 4 mL of buffer C (20 mM Tris-HCl (pH 8.5), 5 mM 2-mercaptoethanol, 100 mM KCl, 100 mM imidazole, 10% (v/v) glycerol) was added to obtain an eluate. This eluate was placed in a dialysis membrane (purchased from Spectrum Medical Industries) and dialyzed against 1 L of dialysis buffer (20 mM Tris-HCl, 10% (v/v) glycerol, 1 mM dithiothreitol, 0.1 mM Na3VO4, 0.1 mM EGTA) at 4° C. overnight. After dialysis, a portion of the eluate was subjected to SDS-PAGE and an amount of the recombinant protein detected at a molecular weight of about 40 kDa (His6-DDR2 (cytoplasmic domain of DDR2 having 6 histidines fused to the N-terminus thereof)) by Coomassie brilliant blue staining was quantitated using BSA as a standard substance.
# To each well of a 96-well black half plate (purchased from Corning, Product No: 3694), 20 ng of His6-DDR2, 35 μL of 25 mM Hepes solution (pH 7.4) containing 14 mM MgCl2 and a test substance dissolved in dimethylsulfoxide (at 100-fold dilution with 1% BSA; 5 μL) were added to a total amount of 40 μL. To this, […] of 50 μM ATP (purchased with Sigma) diluted with 25 mM Hepes solution was added and incubated at room temperature for 10 minutes. Thereafter, 10 μL of 50 mM EDTA (pH 8.0) (purchased from Wako Pure Chemical Industries) was added to terminate the kinase reaction.
# Tyrosine-phosphorylated DDR2 was detected using homogeneous time resolved fluorescence (HTRF) technique (Analytical Biochemistry, 269, 94-104, 1999). Specifically, to each well of the reaction solutions mentioned above, 20 μL of 25 mM Hepes solution containing 1 M KF, 4.75 ng of europium cryptate-labeled anti-phosphorylated tyrosine antibody (Eu(K)-PT66) and 100 ng of XL665-labeled anti-His antibody (XL665-Anti-His) was added. This reaction solution was incubated at room temperature overnight. Thereafter, fluorescence intensities of each well at 665 nm and 620 nm were measured under irradiation at an excitation wavelength of 337 nm using Discovery HTRF microplate analyzer (from Packard). […]
row,IC50,Structure (SMILES)
1,1.1 nM,"COc1cc2nccc(Oc3ccc(NC(=O)Nc4cccc(S(C)(=O)=O)c4)cc3)c2cc1OC [Compound 6, N-(3-methylsulfonylphenyl)-N′-(4-((6,7-dimethoxy-4-quinolinyl)oxy)phenyl)urea]"
2,1.9 nM,"COc1cc2nccc(Oc3ccc4c(ccn4C(=O)Nc4ccc(F)cc4)c3)c2cc1OC [Compound 9, 6,7-dimethoxy-4-(5-(1-(4-fluorophenylcarbamoyl)-indolyl)oxy)quinoline]"
3,1.2 nM,"COc1cc2nccc(Oc3ccc(NC(=O)Nc4ccc(F)cc4)c(F)c3)c2cc1C(N)=O [Compound 8, 4-(4-((4-fluoroanilino)carbonyl)amino-3-fluorophenoxy)-7-methoxy-6-quinoline carboxamide]"
4,28 nM,CCNC(=O)Nc1ccc(Oc2ccnc3cc(OC[C@H](O)CN(CC)CC)c(C(=O)NC)cc23)cc1Cl [Compound 21]
5,18 nM,"COCCNC(=O)c1cc2c(Oc3ccc(NC(=O)NC4CC4)c(Cl)c3)ccnc2cc1OC [Compound 13, N6-(2-methoxyethyl)-4-(3-chloro-4-(((cyclopropylamino)carbonyl)amino)phenoxy)-7-methoxy-6-quinolinecarboxamide]"
6,1890 nM,"CNC(=O)Nc1cc(Oc2ccnc3cc(OC)c(C(=O)NC)cc23)ccc1Cl [Compound 16, N6-methyl-4-(4-chloro-3-(((methylamino)carbonyl)amino)phenoxy)-7-methoxy-6-quinolinecarboxamide]"
7,178 nM,"CCNC(=O)Nc1ccc(Oc2ccnc3cc(OC)c(C(=O)NC)cc23)cc1Cl [Compound 19, N6-methyl-4-(3-chloro-4-(((ethylamino)carbonyl)amino)phenoxy)-7-methoxy-6-quinolinecarboxamide]"
8,0.63 nM,"COCCOc1cc2nccc(Oc3ccc(NC(=O)Nc4cccc(S(C)(=O)=O)c4)c(F)c3)c2cc1C#N [Compound 7, N-(4-(6-cyano-7-(2-methoxyethoxy)-4-quinolyl)oxy-2-fluorophenyl)-N′-(3-methylsulfonylphenyl)urea]"
9,18 nM,"CCNC(=O)Nc1ccc(Oc2ccnc3cc(OCC4CCN(C)CC4)c(C(=O)NC)cc23)cc1Cl [Compound 23, N6-methyl-4-(3-chloro-4-(((ethylamino)carbonyl)amino)phenoxy)-7-((1-methyl-4-piperidyl)methoxy)-6-quinolinecarboxamide]"
10,428 nM,"CCNC(=O)Nc1ccc(Oc2ccnc3cc(OC)c(C(=O)NCC)cc23)cc1Cl [Compound 20, N6-ethyl-4-(3-chloro-4-(((ethylamino)carbonyl)amino)phenoxy)-7-methoxy-6-quinolinecarboxamide]"
11,822 nM,"N#Cc1cc2c(Oc3ccc(Cl)c(NC(=O)NC4CC4)c3)ccnc2cc1OCCN1CCCC1 [Compound 15, N-(2-chloro-5-((6-cyano-7-(2-(1-pyrrolidino)ethoxy)-quinolyl)oxy)phenyl)-N′-cyclopropylurea]"
12,0.24 nM,"CN1CCC(C(=O)Nc2cc(Oc3ccc4c(ccn4C(=O)Nc4ccccc4)c3)ccn2)CC1 [Compound 14, N1-phenyl-5-((2-(((1-methyl-4-piperidyl)carbonyl)amino)-4-pyridyl)oxy)-1H-1-indolecarboxamide]"
13,1.2 nM,"COc1cc2nccc(Oc3ccc(NC(=O)Nc4cccc(SC)c4)cc3)c2cc1OC [Compound 5, N-(3-methylthiophenyl)-N′-(4-((6,7-dimethoxy-4-quinolinyl)oxy)phenyl)urea]"
14,0.91 nM,"COc1cc2nccc(Oc3ccc(NC(=O)NC4CC4)c(Cl)c3)c2cc1C(N)=O [Compound 11, 4-(3-chloro-4-(cyclopropylaminocarbonyl)aminophenoxy)-7-methoxy-6-quinolinecarboxamide]"
15,1.5 nM,"COc1cc2nccc(Oc3ccc(NC(=O)NCCCSC)c(F)c3)c2cc1C(N)=O [Compound 10, 4-(3-fluoro-4-((3-methylthiopropylamino)carbonyl)aminophenoxy)-7-methoxy-6-quinolinecarboxamide]"
16,0.15 nM,"COc1cc2nccc(Oc3ccc4c(ccn4C(=O)NC4CC4)c3)c2cc1C(N)=O [Compound 12, 6-carbamoyl-4-(1-cyclopropylcarbamoyl-1H-indole-5-yloxy)-7-methoxyquinoline]"
17,20.8 nM,N#Cc1cc2c(Oc3ccc(Cl)c(NC(=O)NC4CC4)c3)ccnc2cc1OC[C@H](O)CN1CCCC1 [Compound 17]
18,0.4 nM,"CNC(=O)c1cc2c(Oc3ccc(NC(=O)NC4CC4)c(Cl)c3)ccnc2cc1OCCOC [Compound 18, N6-methyl-4-(3-chloro-4-(((cyclopropylamino)carbonyl)amino)phenoxy)-7-(2-methoxyethoxy)-6-quinolinecarboxamide]"
19,7.2 nM,"CCCCNC(=O)Nc1ccc(Oc2ccnc3cc(OC)c(OC)cc23)cc1 [Compound 2, N-n-butyl-N′-(4-((6,7-dimethoxy-4-quinolinyl)oxy)phenyl)urea]"
20,0.06 nM,"COc1ccc(NC(=O)Nc2ccc(Oc3ccnc4cc(OC)c(OC)cc34)cc2)cc1 [Compound 1, N-(4-methoxyphenyl)-N′-(4-((6,7-dimethoxy-4-quinolinyl)oxy)phenyl)urea]"
21,0.4 nM,"CCNC(=O)Nc1ccc(Oc2ccnc3cc(OC[C@H](O)CN4CCCC4)c(C(=O)NC)cc23)cc1Cl [Compound 22, N6-methyl-4-(3-chloro-4-(((ethylamino)carbonyl)amino)phenoxy)-7-((2R)-2-hydroxy-3-(1-pyrrolidino)propoxy)-6-quinolinecarboxamide]"
22,1.3 nM,"COc1cc2nccc(Oc3ccc(NC(=O)Nc4cccc(C(N)=O)c4)cc3)c2cc1OC [Compound 4, N-(3-carbamoylphenyl)-N′-(4-((6,7-dimethoxy-4-quinolinyl)oxy)phenyl)urea]"
